Assay [1] has as its system HCT116 human colon tumor cells. Put plainly: Growth assay (Cell Titer Glo), HCT116. The assay is classed as cell-based. The settings on record: for HCT116 colon tumor cell growth, single agents and combination (in words): FIG. 12A; for IC50: read-out: Growth Inhibition (IC50/μM) HCT116. The text has this: (§1) All cell lines comprising the NCI-60 cancer cell panel were obtained from the NCI Developmental Therapeutics Program and maintained under the same standard conditions. The human normal colonocyte (NCM460) cell line was purchased from Incell (San Antonio, Tex.) and grown according to the manufacturer's specifications. The human colon adenoma cell line, LT97, was a gift from Dr. Brigitte Marian (Medical University Vienna, Austria) and grown according to the provider's specifications. Human mammary epithelial cells (HMEC) were purchased from Lonzo and grown using culture conditions as recommended by the supplier.
(§2) Ninety-six (96)-well microtiter plates were seeded at a density of 5,000 cells per well. For drug treatment, cells were treated with compounds or vehicle control, and incubated at 37° C. for 72 hours. For siRNA assays, cells were transfected with siRNA under the same conditions described above. The effect of treatment with inhibitors or siRNA knockdown of PDE10A on growth was measured using the Cell Titer Glo Assay (Promega), which measures viable cell number based on ATP content.
(§3) Effect of various PDE isozyme inhibitors on the growth of human colon tumor cells HCT116 and HT29 was determined using the Cell Titer Glo Cell Viability Assay (Promega) following 72 hours of treatment.
(§4) The effect of the inhibitors on the growth of human colon tumor and normal colonocytes was measured using the Cell Titer Glo Cell Viability Assay (Promega) as described above. The inhibitory potency toward purified recombinant phosphodiesterase enzymes was measured using the IMAP Phosphodiesterase Assay as described in the Materials and Methods section.

Assay [2] deals with HT29 human colon tumor cells. Kind of assay: Growth assay (Cell Titer Glo), HT29. The assay is classed as cell-based. The settings on record: for IC50: read-out: Growth Inhibition (IC50/μM) HT29; for pIC50: HT-29.
Description: as §1, §2, §3, §4

In assay [3] the test system is normal colonocytes (NCM460). Put plainly: Growth assay (Cell Titer Glo), normal colonocytes NCM460. The assay is classed as cell-based, human. To be noted: for pIC50: Homo sapiens, NCM460.
Description: as §1, §2, §4
In general terms: ATP-based viability assays read luminescence as a measure of living cells.

In another assay the test system is β-catenin and survivin. Kind of assay: Western blotting of β-catenin and survivin levels in HCT116. The assay is classed as cell-based, human. To be noted: FIG. 12B. The procedure: Western blot analysis was performed as described previously (Tinsley, et al., supra). The following antibodies were used to detect specific proteins: PDE2 (GeneTex, 1:1000), PDE3 (Abcam, 1:1000), PDE5 (Cell Signaling, 1:1000), PDE10 (GeneTex, 1:1000), survivin (Cell Signaling, 1:1000), GAPDH (Cell Signaling, 1:5000).

Assay [4] concerns cGMP PDE activity in lysates from HCT116 cells. Kind of assay: cGMP PDE activity in HCT116 cell lysates (IMAP). The assay is classed as biochemical, human. The settings on record: FIG. 11B. On the procedure:
Cell growth was measured by the Cell Titer Glo cell viability assay (Promega) following 72 hours of treatment, while cGMP PDE activity was measuring using the IMAP fluorescence polarization PDE assay (Molecular Devises).
(§5) PDE enzymatic activity was measured using IMAP fluorescence polarization assay (Molecular Devices. Inc.). […] For experiments involving cell extracts, 2×10^5 cells per well were plated on a six-well tissue culture plate 72 hours prior to cell lysis.

In assay [5] the test system is SW480 human colon tumor cells. Kind of assay: Growth assay (Cell Titer Glo), SW480. The assay is classed as cell-based. To be noted: PDE10 Inhibitors table, read-out: Growth Inhibition IC50, SW-480.
Description: as §1, §2, §4

Another assay concerns the target T1, PDE10A (Homo sapiens, UniProt Q9Y233).
T1 construct: other: substrate cGMP; recombinant enzyme; other: substrate cAMP
Put plainly: IMAP fluorescence polarization PDE assay, PDE10A. Format: biochemical. The settings on record: recombinant enzyme. The procedure:
MY5445 was purchased from EMD Millipore. […] Recombinant PDE enzymes were purchased from BPS Biosciences. DMSO was used as the vehicle for testing effects of all compounds.
as §5, §4

Setting [6] is: 72 hours of treatment, PDE isozyme inhibitor table.
Setting [7] is: Homo sapiens, HCT-116, PDE10 Inhibitors table, read-out: Growth Inhibition IC50, HCT-116.

By pIC50 is commonly meant the negative decadic logarithm of the IC50, by convention in mol/L.

pIC50: −log10 of the molar value. Where two headings read alike, the source gives them in different places. A value given as a limit tells only on which side of the number the result lay.

T1 sequence (Q9Y233 290-1055 limits assumed): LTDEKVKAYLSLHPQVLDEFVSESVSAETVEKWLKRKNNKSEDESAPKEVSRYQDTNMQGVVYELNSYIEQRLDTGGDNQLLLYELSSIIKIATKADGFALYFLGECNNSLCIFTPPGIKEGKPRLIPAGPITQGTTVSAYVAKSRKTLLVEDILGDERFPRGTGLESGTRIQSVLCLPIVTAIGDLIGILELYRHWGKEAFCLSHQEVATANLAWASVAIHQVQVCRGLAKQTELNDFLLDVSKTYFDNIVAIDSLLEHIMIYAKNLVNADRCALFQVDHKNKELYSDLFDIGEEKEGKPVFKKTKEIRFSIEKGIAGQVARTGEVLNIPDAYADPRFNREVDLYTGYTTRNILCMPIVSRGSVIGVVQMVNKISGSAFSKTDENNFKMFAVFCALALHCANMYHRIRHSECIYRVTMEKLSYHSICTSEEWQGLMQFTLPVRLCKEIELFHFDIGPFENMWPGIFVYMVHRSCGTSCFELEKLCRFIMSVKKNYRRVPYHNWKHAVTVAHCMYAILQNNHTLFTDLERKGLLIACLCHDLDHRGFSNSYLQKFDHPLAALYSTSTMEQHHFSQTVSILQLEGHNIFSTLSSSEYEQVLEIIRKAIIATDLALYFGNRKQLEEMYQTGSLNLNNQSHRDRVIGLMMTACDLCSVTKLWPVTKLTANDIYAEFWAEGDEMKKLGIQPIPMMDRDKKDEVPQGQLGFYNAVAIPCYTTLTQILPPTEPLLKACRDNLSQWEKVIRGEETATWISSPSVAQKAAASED

For the compound `CCCCCC[C@@H]([C@@H](C)O)n1cnc2c(N)ncnc21` (racemic) [EHNA], the “Growth Inhibition (IC50/μM) HCT116” value in assay [1] (setting [6]) is “Inactive”. The “Growth Inhibition (IC50/μM) HT29” value in assay [2] (setting [6]) was “Inactive”.

For the compound `COCc1nc2c([nH]1)c(=O)n(C)c(=O)n2CC(C)C` [8-MeoM-IBMX], in assay [1] (setting [6]), the “Growth Inhibition (IC50/μM) HCT116” value was “Inactive”. Further, in assay [2] (setting [6]), the “Growth Inhibition (IC50/μM) HT29” value is reported as “Inactive”.

As to `COc1ccc(Cc2nccc3cc(OC)c(OC)cc23)cc1OC` [Papaverine, papaverine], the pIC50 is 3.93 in assay [3] (72 hours of treatment, FIG. 11, read-out: IC50, growth of normal colonocytes (NCM460)); less than 4.00 in assay [3] (PDE10 Inhibitors table, read-out: Growth Inhibition IC50, NCM-460); 5.05 in assay [1] (Homo sapiens, HCT-116, 72 hours of treatment, FIG. 11, read-out: IC50, growth of HCT116 colon tumor cells); 5.17 in assay [1] (setting [7]); 4.89 in assay [2] (Homo sapiens, 72 hours of treatment, FIG. 11, read-out: IC50, growth of HT29 colon tumor cells); 4.61 in assay [2] (Homo sapiens, PDE10 Inhibitors table, read-out: Growth Inhibition IC50, HT-29). Besides, the pIC50 in assay [5] is 4.95. Moreover, in assay [3] (NCM460 vs HCT116 and HT29), the “normal colonocytes (NCM460) less sensitive than colon tumor cell lines” value is on record as “approximately 11 fold”. Besides, in the assay with β-catenin and survivin, the “β-catenin and survivin levels in HCT116 colon tumor cells (in words)” value is given as “reduced”. Moreover, in assay [4], the “cGMP hydrolysis in lysates from HCT116 cells (in words)” value is recorded as “inhibited”. The “HCT116 colon tumor cell growth, single agents and combination (in words)” value in assay [1] is “suppressed”. Moreover, the IC50 in assay [1] (Homo sapiens, HCT-116, 72 h) was 9 µM; in assay [2] (Homo sapiens, HT-29, 72 h), 13 µM.

On to `COc1ccc(C2CNC(=O)C2)cc1OC1CCCC1` (stereo not drawn) [Rolipram, rolipram], for which the “Growth Inhibition (IC50/μM) HCT116” value in assay [1] (setting [6]) is “Inactive”. Besides, the “Growth Inhibition (IC50/μM) HT29” value in assay [2] (setting [6]) is “Inactive”.

Take `CN1CC(=O)N2[C@H](c3ccc4c(c3)OCO4)c3[nH]c4ccccc4c3C[C@@H]2C1=O` [Tadalafil, tadalafil]: the IC50 in assay [1] (Homo sapiens, HCT-116, 72 hours of treatment, PDE isozyme inhibitor table) came out at 38 µM.

As for `COc1cc(/C=N/NC(=O)C(OC)c2ccc(-n3cccn3)cc2)cc(OC)c1Br` (stereo not drawn) [Compound no. 4, (E)-2-{4-(1H-pyrazol-1-yl)phenyl}-N′-(4-bromo-3,5-dimethoxybenzylidene)-2-methoxyacetohydrazide], the pIC50 in assay [1] (Homo sapiens, HCT-116, read-out: Growth Inhibition IC50, HCT-116) was 5.50.

`Cc1nc2c3cc(Br)ccc3nc(SCC#N)n2n1` [Compound no. 5, 2-{(9-bromo-2-methyl-[1,2,4]triazolo[1,5-c]quinazolin-5-yl)thio}acetonitrile]: the pIC50 is 8.06 at PDE10A (substrate cAMP, read-out: Phosphodiesterase Inhibition PDE10A cAMP IC50); 8.05 on PDE10A (substrate cGMP, read-out: Phosphodiesterase Inhibition PDE10A cGMP IC50); 5.00 in assay [1] (setting [7]).

In the case of `O=C1CCc2cc(OCCCCc3nnnn3C3CCCCC3)ccc2N1` [Cilostazol, cilostazol], the “Growth Inhibition (IC50/μM) HCT116” value in assay [1] (setting [6]) is “Inactive”. Moreover, the “Growth Inhibition (IC50/μM) HT29” value in assay [2] (setting [6]) is reported as “Inactive”.

As to `Clc1cccc(Nc2nnc(-c3ccccc3)c3ccccc23)c1` [MY5445], the “β-catenin and survivin levels in HCT116 colon tumor cells (in words)” value in the assay with β-catenin and survivin is recorded as “reduced”. Further, the IC50 was found to be 18 µM in assay [1] (setting [6]) and 11 µM in assay [2] (setting [6]). For the same compound, the “HCT116 colon tumor cell growth, single agents and combination (in words)” value in assay [1] was “suppressed”.

These data come from patent US10039764B2, “Treatment and diagnosis of cancer and precancerous conditions using PDE10A inhibitors and methods to measure PDE10A expression” (University of South Alabama, priority 2013, dated 2018).
